Source: patent US20090306144A1, “PYRIDINE DERIVATIVES OF ALKYL OXINDOLES AS 5-HT7 RECEPTOR ACTIVE AGENTS” (priority 2004, published 2009)
Where a name gives a salt, the structure may show the parent alone.

target: T1, 5-HT uptake (Rattus norvegicus, UniProt P31652); experiment: Serotonin uptake experiment (tritiated serotonin, cortex); assay type: biochemical; conditions: cortex tissue; ligand tritiated serotonin; non-specific ligand fluoxetine (100 μM); read-out: Inhibition of 5-HT uptake, IC50
T1 construct: In the serotonin uptake experiment cortex was used as tissue; from tissue; host or cells: frontal cortex of male Wistar rats
Protocol: (§1) Human cloned receptors or frontal cortex preparations of male Wistar rats weighing 120-200 g were used for the experiments. The protein contents of membrane preparations were determined according to the method of Lowry (1951).
(§2) In the course of 5-HT7 receptor binding studies the applied tissue was CHO cell culture, the ligand was ^3H-LSD, and for the non-specific binding clozapine (25 μM) was used as ligand. In the serotonin uptake experiment cortex was used as tissue. As ligand tritiated serotonin, as non-specifically binding ligand fluoxetine (100 μM) was applied.
(§3) IC50 is the concentration where the difference between whole binding and non-specific binding in the presence of 10 μM serotonin creatinine sulfate is 50%. The compounds with an IC50 value smaller than 100 nmol were considered effective in this test.

T1 sequence (P31652 whole entry): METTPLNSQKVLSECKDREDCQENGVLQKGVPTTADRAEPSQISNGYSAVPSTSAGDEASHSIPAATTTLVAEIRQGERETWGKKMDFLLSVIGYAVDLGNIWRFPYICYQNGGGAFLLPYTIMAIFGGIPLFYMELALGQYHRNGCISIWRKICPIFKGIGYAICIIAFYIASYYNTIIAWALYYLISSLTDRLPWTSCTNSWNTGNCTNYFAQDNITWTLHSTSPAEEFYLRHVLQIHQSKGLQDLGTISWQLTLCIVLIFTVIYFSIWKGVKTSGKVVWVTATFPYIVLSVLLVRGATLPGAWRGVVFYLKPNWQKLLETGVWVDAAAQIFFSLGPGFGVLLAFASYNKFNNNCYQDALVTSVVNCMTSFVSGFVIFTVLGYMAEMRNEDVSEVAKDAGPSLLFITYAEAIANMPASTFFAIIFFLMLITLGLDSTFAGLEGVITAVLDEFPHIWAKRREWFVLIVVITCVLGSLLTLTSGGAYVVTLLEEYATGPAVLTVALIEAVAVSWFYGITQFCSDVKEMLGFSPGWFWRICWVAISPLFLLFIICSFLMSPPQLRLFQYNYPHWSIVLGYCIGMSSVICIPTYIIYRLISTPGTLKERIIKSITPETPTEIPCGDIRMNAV

Row | SMILES | IC50 [µM]
1 | O=C1Nc2ccccc2C1CCCCN1CC=C(c2ccc(Cl)cc2)CC1 (centres unmarked) [Example 13, 3-{4-[4-(4-Chlorophenyl)-1,2,3,6-tetrahydro-pyridin-1-yl]-butyl}-1,3-dihydro-2H-indol-2-one] | < 0.1
2 | O=C1Nc2ccc(F)cc2C1CCCCN1CC=C(c2cccc(C(F)(F)F)c2)CC1 (centres unmarked) [Example 14, 5-Fluoro-3-{4-[4-(3-trifluoromethyl-phenyl)-1,2,3,6-tetrahydropyridin-1-yl]-butyl}-1,3-dihydro-2H-indol-2-one monohydrochloride] | < 0.1

test system: not given; experiment: not given; conditions: not given

Row | SMILES | melting point [°C]
3 | O=C1Nc2ccccc2C1CCCCN1CC=C(c2ccccc2)CC1 (centres unmarked) | 121 to 126
4 | O=C1Nc2ccc(F)cc2C1CCCCN1CCc2sccc2C1 (centres unmarked) (as salt: hydrochloride) [Example 7, 3-[4-(6,7-Dihydro-4H-thieno[3,2-c]pyridin-5-yl)-butyl]-5-fluoro-1,3-dihydro-2H-indol-2-one monohydrochloride] | 192 to 194
5 | O=C1Nc2cc(F)ccc2C1CCCCN1CC=C(c2cccc(C(F)(F)F)c2)CC1 (centres unmarked) (as salt: hydrochloride) [Example 12, 6-Fluoro-3-{4-[4-(3-trifluoromethyl-phenyl)-1,2,3,6-tetrahydropyridin-1-yl]-butyl}-1,3-dihydro-2H-indol-2-one monohydrochloride] | 203 to 205
6 | O=C1Nc2ccc(F)cc2C1CCCCN1CC=C(c2cccc(C(F)(F)F)c2)CC1 (centres unmarked) (as salt: hydrochloride) [Example 14, 5-Fluoro-3-{4-[4-(3-trifluoromethyl-phenyl)-1,2,3,6-tetrahydropyridin-1-yl]-butyl}-1,3-dihydro-2H-indol-2-one monohydrochloride] | 201 to 204
7 | O=C1Nc2ccccc2C1CCCCN1CC=C(c2cccc(C(F)(F)F)c2)CC1 (centres unmarked) (as salt: oxalate) [Example 5, 3-{4-[4-(3-Trifluoromethyl-phenyl)-1,2,3,6-tetrahydropyridin-1-yl]-butyl}-1,3-dihydro-2H-indol-2-one monooxalate] | 159 to 161
8 | O=C1Nc2ccccc2C1CCCCN1CCc2sccc2C1 (centres unmarked) (as salt: oxalate) [Example 6, 3-[4-(6,7-Dihydro-4H-thieno[3,2-c]pyridin-5-yl)-butyl]-1,3-dihydro-2H-indol-2-one monooxalate] | 168 to 170
9 | O=C1Nc2ccccc2C1CCCCN1CC=C(c2ccc(Cl)cc2)CC1 (centres unmarked) [Example 13, 3-{4-[4-(4-Chlorophenyl)-1,2,3,6-tetrahydro-pyridin-1-yl]-butyl}-1,3-dihydro-2H-indol-2-one] | 122 to 124

The next lines start with the values.

Row | melting point [°C] | SMILES
10 | 103 to 106 | O=C1Nc2ccccc2C1CCCCN1CCc2sc(Cl)cc2C1 (centres unmarked) (as salt: hydrochloride) [Example 8, 3-[4-(2-Chloro-6,7-dihydro-4H-thieno[3,2-c]-pyridin-5-yl)-butyl]-1,3-dihydro-2H-indol-2-one monohydrochloride]
11 | 194 to 197 | O=C1Nc2cc(F)ccc2C1CCCCN1CCc2sccc2C1 (centres unmarked) (as salt: hydrochloride) [Example 9, 3-[4-(6,7-Dihydro-4H-thieno[3,2-c]pyridin-5-yl)-butyl]-6-fluoro-1,3-dihydro-2H-indol-2-one mono-hydrochloride]
12 | 214 to 216 | O=C1Nc2cc(F)ccc2C1CCCCN1CCc2sc(Cl)cc2C1 (centres unmarked) (as salt: hydrochloride) [Example 10, 3-[4-(2-Chloro-6,7-dihydro-4H-thieno[3,2-c]-pyridin-5-yl)-butyl]-6-fluoro-1,3-dihydro-2H-indol-2-one monohydrochloride]
13 | 161 to 163 | O=C1Nc2ccc(F)cc2C1CCCCN1CCc2sc(Cl)cc2C1 (centres unmarked) (as salt: hydrochloride) [Example 11, 3-[4-(2-Chloro-6,7-dihydro-4H-thieno[3,2-c]-pyridin-5-yl)-butyl]-5-fluoro-1,3-dihydro-2H-indol-2-one monohydrochloride]

target: T2, 5-HT7 receptor (Homo sapiens, UniProt P34969); experiment: 5-HT7 receptor binding (3H-LSD, CHO cell culture); conditions: ligand 3H-LSD, non-specific binding clozapine (25 μM), read-out: Inhibition of 5-HT7 receptor binding, IC50
T2 construct: expressed in transfected cells; host or cells: CHO cell culture
Protocol: as §1, §2, §3

T2 sequence (P34969 whole entry): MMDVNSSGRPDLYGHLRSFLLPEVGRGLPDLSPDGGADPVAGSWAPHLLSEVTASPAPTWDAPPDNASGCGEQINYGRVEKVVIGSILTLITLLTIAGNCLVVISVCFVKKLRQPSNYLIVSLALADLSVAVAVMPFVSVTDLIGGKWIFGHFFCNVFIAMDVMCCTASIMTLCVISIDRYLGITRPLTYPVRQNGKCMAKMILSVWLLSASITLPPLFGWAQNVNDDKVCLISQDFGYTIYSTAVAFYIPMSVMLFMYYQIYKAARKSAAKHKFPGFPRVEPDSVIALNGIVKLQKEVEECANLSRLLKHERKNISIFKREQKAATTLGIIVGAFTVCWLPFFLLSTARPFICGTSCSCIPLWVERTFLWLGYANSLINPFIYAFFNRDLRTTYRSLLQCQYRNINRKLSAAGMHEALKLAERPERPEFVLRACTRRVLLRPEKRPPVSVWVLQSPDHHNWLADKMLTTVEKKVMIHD

Row | SMILES | IC50 [µM]
14 | O=C1Nc2ccccc2C1CCCCN1CC=C(c2cccc(C(F)(F)F)c2)CC1 (centres unmarked) [Example 5, 3-{4-[4-(3-Trifluoromethyl-phenyl)-1,2,3,6-tetrahydropyridin-1-yl]-butyl}-1,3-dihydro-2H-indol-2-one monooxalate] | < 0.1
15 | O=C1Nc2ccccc2C1CCCCN1CCc2sccc2C1 (centres unmarked) [Example 6, 3-[4-(6,7-Dihydro-4H-thieno[3,2-c]pyridin-5-yl)-butyl]-1,3-dihydro-2H-indol-2-one monooxalate] | < 0.1
16 | O=C1Nc2cc(F)ccc2C1CCCCN1CC=C(c2cccc(C(F)(F)F)c2)CC1 (centres unmarked) [Example 12, 6-Fluoro-3-{4-[4-(3-trifluoromethyl-phenyl)-1,2,3,6-tetrahydropyridin-1-yl]-butyl}-1,3-dihydro-2H-indol-2-one monohydrochloride] | < 0.1
17 | O=C1Nc2ccccc2C1CCCCN1CC=C(c2ccc(Cl)cc2)CC1 (centres unmarked) [Example 13, 3-{4-[4-(4-Chlorophenyl)-1,2,3,6-tetrahydro-pyridin-1-yl]-butyl}-1,3-dihydro-2H-indol-2-one] | < 0.1
18 | O=C1Nc2ccc(F)cc2C1CCCCN1CC=C(c2cccc(C(F)(F)F)c2)CC1 (centres unmarked) [Example 14, 5-Fluoro-3-{4-[4-(3-trifluoromethyl-phenyl)-1,2,3,6-tetrahydropyridin-1-yl]-butyl}-1,3-dihydro-2H-indol-2-one monohydrochloride] | < 0.1

Continued, values first:

Row | IC50 [µM] | SMILES
19 | < 0.1 | O=C1Nc2ccc(F)cc2C1CCCCN1CCc2sccc2C1 (centres unmarked) [Example 7, 3-[4-(6,7-Dihydro-4H-thieno[3,2-c]pyridin-5-yl)-butyl]-5-fluoro-1,3-dihydro-2H-indol-2-one monohydrochloride]
20 | < 0.1 | O=C1Nc2ccccc2C1CCCCN1CCc2sc(Cl)cc2C1 (centres unmarked) [Example 8, 3-[4-(2-Chloro-6,7-dihydro-4H-thieno[3,2-c]-pyridin-5-yl)-butyl]-1,3-dihydro-2H-indol-2-one monohydrochloride]
21 | < 0.1 | O=C1Nc2cc(F)ccc2C1CCCCN1CCc2sccc2C1 (centres unmarked) [Example 9, 3-[4-(6,7-Dihydro-4H-thieno[3,2-c]pyridin-5-yl)-butyl]-6-fluoro-1,3-dihydro-2H-indol-2-one mono-hydrochloride]
22 | < 0.1 | O=C1Nc2cc(F)ccc2C1CCCCN1CCc2sc(Cl)cc2C1 (centres unmarked) [Example 10, 3-[4-(2-Chloro-6,7-dihydro-4H-thieno[3,2-c]-pyridin-5-yl)-butyl]-6-fluoro-1,3-dihydro-2H-indol-2-one monohydrochloride]
23 | < 0.1 | O=C1Nc2ccc(F)cc2C1CCCCN1CCc2sc(Cl)cc2C1 (centres unmarked) [Example 11, 3-[4-(2-Chloro-6,7-dihydro-4H-thieno[3,2-c]-pyridin-5-yl)-butyl]-5-fluoro-1,3-dihydro-2H-indol-2-one monohydrochloride]
